Experimental data published in patent US9388215B2, “Compositions and methods of using islet neogenesis peptides and analogs thereof” (SHENZHEN HIGHTIDE BIOPHARMACEUTICAL, LTD., priority 2013, dated 2016).

Key:
[1] = Peptide stability in human plasma; assay type: in vitro ADME; settings: 100 μg/mL, 37° C.; FIG. 4, 15
Description: The stability of peptides was also tested in mouse and human plasma. Briefly, a certain amount of peptides and eucatropine powder (positive control) was accurately weighed. Test compounds were dissolved in 50% methanol-water solution and diluted to 20 mg/mL, and eucatropine was dissolved in dimethylsulfoxide (DMSO) and diluted to 10 mM, as a stock solution. Eucatropine stock solution was diluted to 0.2 mM with DMSO as a working solution. A stop reagent was prepared containing 200 ng/mL midazolam and tolbutamide in acetonitrile. A volume of 300 μL of stop solution was added to each well of a 96-well deep-well plate placed on ice beforehand.
For the stability studies, peptides and eucatropine were spiked into plasma respectively, mixed well, and then 100 μL of each mixture solution was transferred into the pre-cooled stop reagent as 0 time point sample. The remaining mixtures were incubated in a 37° C. water bath with shaking at 100 rpm (n=2). The final incubation concentration was […] for eucatropine and 100 μg/mL for all test compounds.
At desired time points, 100 μL of incubation mixture was transferred to the stop reagent to precipitate proteins. Samples were vortexed and centrifuged at RCF 5000×g for 10 minutes, and supernatant was transferred to a test plate. The samples were analyzed by LC-MS/MS.
Slope was calculated by plotting the natural logarithm of the percentage of remaining amount of test compounds and time, and T1/2 was calculated in accordance with the following formula.
For stability in human plasma, the incubation time was 0, 30, 60 and 120 min for Peptide 1, Peptide 12, Peptide 16 and eucatropine.
The stability of peptides was also tested in rat, mouse and human plasma. Briefly, a certain amount of peptides and eucatropine powder (positive control) was accurately weighed. Test compounds were dissolved in 50% methanol-water solution and diluted to 20 mg/mL, and eucatropine was dissolved in dimethylsulfoxide (DMSO) and diluted to 10 mM, as a stock solution. Eucatropine stock solution was diluted to 0.2 mM with DMSO as a working solution. […]

[2] = Pharmacokinetics in SD rats after single subcutaneous dose (Example X); assay type: in vivo, rat; settings: plasma, sc, male Sprague-Dawley rat, subcutaneous, 25 mg/kg; for AUC(0-t): read-out: AUC(0-t); for AUC(0-inf): read-out: AUC(0-∞); for Cmax: read-out: Cmax
Description: After 7 days acclimation, a total of 15 male Sprague-Dawley (SD) rats (body weight: 230 to 270 g) in good health from Sino-British SIPPR/BK Lab Animal Ltd, Shanghai, were used in the study. All peptides, Peptide 1, Peptide 12, Peptide 16, Peptide 29 or Peptide 31, were dissolved in sterile normal saline respectively to yield the desired final concentrations and were administered via single subcutaneous (sc) dose.
Three animals in each group were used for blood collection at the time point of 5 min, 15 min, 30 min, 1 h, 2 h, 4 h, 6 h, 8 h and 24 h post-dose. Blood samples (approximately 400 μL) were collected and placed into tubes containing EDTA-K2 (dipotassium ethylene diamine tetraacetic acid) and centrifuged at 8000 rpm for 6 minutes at 4° C. to separate plasma from the samples. The resulting plasma was stored frozen at −80° C. until being analyzed.
Plasma concentrations of peptides were determined using tandem mass spectrometry (LC-MS/MS) analysis. A non-compartmental module of WinNonlin® Professional 5.2 (Pharsight; St. Louis Mo.) was used to calculate PK parameters. AUC(0-t) represents area under the curve from the time of dosing to the time of the last observation, the AUC(0-∞) represents area under the curve from the time of dosing to infinity, and the Cmax represents maximum concentration detected.

[3] = Pharmacokinetics in mouse, subcutaneous bolus; assay type: in vivo; settings: male, C57BL/6, plasma, MOUSE (SC), 25 mg/kg; for AUC(0-t): read-out: AUC(0-t); for AUC(0-inf): read-out: AUC(0-∞); for Cmax: read-out: Cmax
Description: (§1) After 7 days acclimation, male Sprague-Dawley (SD) rats weighing 210-250 g, or male C57BL/6 mice, weighing 19-24 g, in good health were used in the study. Peptide 1, Peptide 12 and Peptide 16 were dissolved in sterile normal saline and then they were injected via subcutaneous (sc) bolus or intravenous (iv) bolus at the dose level of 25 mg/kg. Three animals in each group were used for blood collection at the time point of 5 min, 15 min, 30 min, 1 h, 2 h, 4 h, 6 h, 8 h and 24 h post-dose. Blood samples (approximately 400 μL) were collected and placed into tubes containing EDTA-K2 and centrifuged at 8000 rpm for 6 minutes at 4° C. to separate plasma from the samples. The resulting plasma was stored frozen at −80° C. until being analyzed. Plasma concentrations of peptides were determined using tandem mass spectrometry (LC-MS/MS) analysis. A non-compartmental module of WinNonlin® Professional 5.2 (Pharsight; St. Louis Mo.), was used to calculate PK parameters. The abbreviation AUC(0-t) represents area under the curve from the time of dosing to the time of the last observation, the AUC(0-∞) represents area under the curve from the time of dosing to infinity, and the Cmax represents maximum concentration detected.

[4] = Pharmacokinetics in rat, subcutaneous bolus (Example VII); assay type: in vivo; settings: male, Sprague-Dawley, plasma, RAT (SC), 25 mg/kg; for AUC(0-t): read-out: AUC(0-t); for AUC(0-inf): read-out: AUC(0-∞); for Cmax: read-out: Cmax
Description: as §1

[5] = Pharmacokinetics in rat, intravenous bolus; assay type: in vivo; settings: male, Sprague-Dawley, plasma, RAT (IV), 25 mg/kg; for AUC(0-t): read-out: AUC(0-t); for AUC(0-inf): read-out: AUC(0-∞); for Cmax: read-out: Cmax
Description: as §1

Substance	stability in human plasma [1]	AUC(0-t) [2]	AUC(0-inf) [2]	Cmax [2]	AUC(0-t) [3]	AUC(0-inf) [3]	Cmax [3]	AUC(0-t) [4]	AUC(0-inf) [4]	Cmax [4]	AUC(0-t) [5]	AUC(0-inf) [5]	Cmax [5]
Ac-IGLHDPSHGTLPNGS-NH2 [Peptide 31, Ac-IGLHDPSHGTLPNGS-NH2]	exhibited good stability in human plasma and were significantly more stable than INGAP-PP	15600 ± 1530 ng·h/mL	15600 ± 1530 ng·h/mL	26000 ± 3100 ng/mL	–	–	–	–	–	–	–	–	–
Ac-IGLHDPSHGTLPNGS-OH [Peptide 16, Ac-IGLHDPSHGTLPNGS-OH]	exhibited good stability in human plasma and were significantly more stable than INGAP-PP	11200 ± 1880 ng·h/mL	11200 ± 1880 ng·h/mL	22100 ± 5870 ng/mL	11400 ng·h/mL	11400 ng·h/mL	14400 ng/mL	12100 ng·h/mL	12200 ng·h/mL	18900 ng/mL	12200 ng·h/mL	12200 ng·h/mL	45200 ng/mL
H-IGLHDPSHGTLPNGS-OH [Peptide 1, H-IGLHDPSHGTLPNGS-OH, reference compound]	–	294 ± 125 ng·h/mL	298 ± 122 ng·h/mL	1190 ± 610 ng/mL	54.5 ng·h/mL	58.3 ng·h/mL	141 ng/mL	298 ng·h/mL	305 ng·h/mL	1240 ng/mL	21.9 ng·h/mL	27.1 ng·h/mL	48.7 ng/mL
